ChEMBL document CHEMBL6134880, “Targeting Oncogenic Pathways: Advances in KRAS, CDK, EGFR, and PROTAC-Based Therapies” (ACS Med Chem Lett, 2025)
pIC50: −log10 of the molar value.

Tests used:
SOS1-KRAS = SOS1-KRAS (Homo sapiens, UniProt P01116, G12D); experiment: (§1) Inhibition of GST-tagged KRAS G12D mutant (2 to 169 residues) (unknown origin)/SOS1 catalytic domain (564 to 1069 residues) (unknown origin) protein-protein interaction preincubated with compound for 60 mins followed by SOS1 and GTP-DY-647P1 addition and measured after 30 mins by fluorescence based nucleotide exchange assay; format: protein-complex assay
[1] = as §1, with “G12V” for “G12D”, “90” for “30”; parameters: species or system Homo sapiens

Structure (SMILES) | pIC50 (SOS1-KRAS) | pIC50 [1]
C[C@@]1(O)C[C@@H](O)CN(c2nc(OC[C@@]34CCCN3C[C@H](F)C4)nc(N3CC4(CCc5sc(N)c(C#N)c54)C3)n2)C1 | > 8.00 | > 8.00
N#Cc1c(N)sc2c1C1(CC2)CN(c2nc(OCC3(CN4CCOCC4)CC3)nc(N3C[C@H]4CC[C@@H](C3)N4)n2)C1 | > 8.00 | 8.00
N#Cc1c(N)sc2c1C1(CC2)CN(c2nc(OC[C@@]34CCCN3C[C@H](F)C4)nc(N3CCCCC(O)C3)n2)C1 (some centres undefined) | 8.00 | > 8.00
C=C1CN2CCCC2(COc2nc(N3CC4(CCc5sc(N)c(C#N)c54)C3)nc(N3CCC[C@@](C)(O)C3)n2)C1 (some centres undefined) | > 8.00 | > 8.00
N#Cc1c(N)sc2c1C1(CC2)CN(c2nc(OCC3(CN4CCOCC4)CC3)nc(N3CCCC4(C3)NC(=O)NC4=O)n2)C1 (centres undefined) | > 8.00 | > 8.00
N#Cc1c(N)sc2c1C1(CC2)CN(c2nc(OC[C@@]34CCCN3C[C@H](F)C4)nc(N3CCCC(C#N)CC3)n2)C1 (some centres undefined) | 8.00 | > 8.00

Other lines, results leading:

pIC50 (SOS1-KRAS) | pIC50 [1] | Structure (SMILES)
> 8.00 | > 8.00 | CN(C)CC1(COc2nc(N3CC4(CCc5sc(N)c(C#N)c54)C3)nc(N3CCC[C@@](C)(O)C3)n2)CC1(F)F (some centres undefined)
> 8.00 | > 8.00 | CC1(O)CCN(c2nc(OCC3(CN4CCOCC4)CC3)nc(N3CC4(CCc5sc(N)c(C#N)c54)C3)n2)CC1
> 8.00 | > 8.00 | C[C@@]1(O)CCCN(c2nc(OC[C@@]34CCCN3C[C@H](F)C4)nc(N3CC4(C3)SCc3sc(N)c(C#N)c34)n2)C1
8.00 | > 8.00 | CC1(O)CCCCN(c2nc(OC[C@@]34CCCN3C[C@H](F)C4)nc(N3CC4(CCc5sc(N)c(C#N)c54)C3)n2)C1 (some centres undefined)
> 8.00 | > 8.00 | C[C@@]1(O)CCCN(c2nc(OC[C@@]34CCCN3C[C@H](F)C4)nc(N3CC4(CCc5sc(N)c(C#N)c54)C3)n2)C1
> 8.00 | > 8.00 | N#Cc1c(N)sc2c1C1(CC2)CN(c2nc(OC[C@@]34CCCN3C[C@H](F)C4)nc(N3CCCC4(C3)NC(=O)NC4=O)n2)C1 (some centres undefined)
